Assay results from ChEMBL document CHEMBL1154483, “Mechanistic aspects of benzothiazepines: a class of antiarrhythmic drugs” (Eur J Med Chem, 2009).

Experiment: Inhibition of calcium channel

Row | IC50 [µM] | SMILES
1 | 0.0065 | COc1ccc([C@@H]2Sc3ccccc3N(CCN(C)CCc3ccc(OC)c(OC)c3)C(=O)[C@@H]2OC(C)=O)cc1
2 | 0.337 | COc1ccc([C@@H]2Sc3ccccc3N(CCN(C)C)C(=O)[C@@H]2OC(C)=O)cc1 [DILTIAZEM]
